From ChEMBL document CHEMBL1143223, “Synthesis and in vitro activity of 1-(2,3-dichlorophenyl)-N-(pyridin-3-ylmethyl)-1H-1,2,4-triazol-5-amine and 4-(2,3-dichlorophenyl)-N-(pyridin-3-ylmethyl)-4H-1,2,4-triazol-3-amine P2X7 antagonists” (Bioorg Med Chem Lett, 2008)
pIC50: −log10 of the molar value.

Legend:
[1] = biological target: T1, P2X purinoceptor 7 (Rattus norvegicus, UniProt Q64663); experiment: Antagonist activity at rat recombinant P2X7 receptor assessed as inhibition of BzATP-induced calcium flux by FLIPR assay; type: functional
T1 sequence (Q64663 whole entry): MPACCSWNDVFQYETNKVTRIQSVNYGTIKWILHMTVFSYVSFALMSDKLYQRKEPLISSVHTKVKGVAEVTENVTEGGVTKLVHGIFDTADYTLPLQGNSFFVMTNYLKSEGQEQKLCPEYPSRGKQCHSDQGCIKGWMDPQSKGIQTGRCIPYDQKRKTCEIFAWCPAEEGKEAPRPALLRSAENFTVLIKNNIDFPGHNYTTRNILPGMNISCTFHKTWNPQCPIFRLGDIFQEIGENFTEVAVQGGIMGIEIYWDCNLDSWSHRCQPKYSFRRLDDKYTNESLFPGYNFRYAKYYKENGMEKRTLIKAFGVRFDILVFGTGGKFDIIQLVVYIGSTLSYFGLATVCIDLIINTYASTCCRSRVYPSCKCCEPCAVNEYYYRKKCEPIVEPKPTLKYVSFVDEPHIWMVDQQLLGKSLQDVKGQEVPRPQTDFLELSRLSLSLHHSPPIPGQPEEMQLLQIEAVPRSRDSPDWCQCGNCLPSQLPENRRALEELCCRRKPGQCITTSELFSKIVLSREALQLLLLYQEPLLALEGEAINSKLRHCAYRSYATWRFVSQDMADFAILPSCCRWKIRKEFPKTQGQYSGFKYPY

[2] = biological target: T2, P2X purinoceptor 7 (Homo sapiens, UniProt Q99572); experiment: Antagonist activity at human recombinant P2X7 receptor assessed as inhibition of BzATP-induced calcium flux by FLIPR assay; type: functional
T2 sequence (Q99572 whole entry): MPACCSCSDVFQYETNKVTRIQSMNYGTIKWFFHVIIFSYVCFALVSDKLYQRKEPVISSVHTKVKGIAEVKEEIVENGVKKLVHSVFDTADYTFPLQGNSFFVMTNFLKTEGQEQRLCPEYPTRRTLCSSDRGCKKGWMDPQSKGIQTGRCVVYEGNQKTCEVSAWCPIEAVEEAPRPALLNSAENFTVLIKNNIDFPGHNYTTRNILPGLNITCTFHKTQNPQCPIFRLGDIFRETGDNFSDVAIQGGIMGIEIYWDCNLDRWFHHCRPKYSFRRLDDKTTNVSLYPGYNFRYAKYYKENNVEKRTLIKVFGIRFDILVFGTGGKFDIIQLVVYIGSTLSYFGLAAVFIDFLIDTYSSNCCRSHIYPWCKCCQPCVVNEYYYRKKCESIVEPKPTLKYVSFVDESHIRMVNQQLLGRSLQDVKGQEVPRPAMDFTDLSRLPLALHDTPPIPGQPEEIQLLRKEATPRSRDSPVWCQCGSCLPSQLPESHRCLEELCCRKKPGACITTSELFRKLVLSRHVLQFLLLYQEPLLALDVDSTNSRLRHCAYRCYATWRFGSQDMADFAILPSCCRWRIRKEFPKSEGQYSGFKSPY

| Structure (SMILES) | pIC50 [1] | pIC50 [2] |
| --- | --- | --- |
| Clc1cccc(-n2cnnc2NCc2cccnc2Oc2cccnc2)c1Cl | 7.45 | 7.51 |
| COc1ccccc1Nc1ncnn1-c1cccc(Cl)c1Cl | 5.69 | 6.99 |
| CCOc1ccccc1CNc1ncnn1-c1cccc(Cl)c1Cl | 6.31 | 7.34 |
| Clc1cccc(-n2ncnc2NCc2cccnc2N2CCCC2)c1Cl | 7.55 | 7.90 |
| Clc1cccc(-n2ncnc2NCc2ccncc2)c1Cl | < 5.00 | < 5.00 |
| Cc1ncccc1CNc1nncn1-c1cccc(Cl)c1Cl | 6.75 | 7.54 |
| Clc1cccc(-n2ncnc2NCc2cccnc2-c2ccsc2)c1Cl | 6.86 | 7.82 |
| Clc1cccc(-n2ncnc2NCc2cccnc2Oc2cccnc2)c1Cl | 6.89 | 7.86 |
| Clc1cccc(-n2ncnc2Nc2ccccc2N2CCOCC2)c1Cl | 5.31 | 5.47 |
| Clc1cccc(-n2ncnc2Nc2ccccc2)c1Cl | 5.41 | 6.44 |
| Clc1cccc(-n2ncnc2NCc2cccnc2)c1Cl | 5.88 | 6.93 |
| CC(C)N1CCCN(c2ncccc2CNc2nncn2-c2cccc(Cl)c2Cl)CC1 |  | 7.17 |
| NC(=O)CN1CCCN(c2ncccc2CNc2nncn2-c2cccc(Cl)c2Cl)CC1 |  | 7.49 |
| Cc1ccccc1Nc1ncnn1-c1cccc(Cl)c1Cl | 6.62 | 7.75 |
| CCc1ccccc1Nc1ncnn1-c1cccc(Cl)c1Cl | 6.54 | 7.34 |
| COc1cccc(CNc2ncnn2-c2cccc(Cl)c2Cl)c1OC | 6.87 | 7.51 |
| Clc1cccc(-n2cnnc2NCc2cccnc2N2CCCC2)c1Cl | 7.92 | 7.83 |
| Cc1cccc(CNc2ncnn2-c2cccc(Cl)c2Cl)c1 | 5.99 | 6.81 |
| Cc1ccc(CNc2ncnn2-c2cccc(Cl)c2Cl)cc1 | 5.15 | 6.32 |

| Structure (SMILES) | pIC50 [1] | pIC50 [2] |
| --- | --- | --- |
| Clc1cccc(-n2ncnc2NCc2ccccc2)c1Cl | 6.68 | 7.32 |
| Cc1cccc(CNc2ncnn2-c2cccc(Cl)c2Cl)c1C | 6.20 | 7.17 |
| Clc1cccc(-c2nnnn2Cc2cccnc2)c1Cl | 6.51 | 6.91 |
| Clc1cccc(-n2ncnc2NCc2ccccc2Oc2cccnc2)c1Cl | 6.80 | 7.33 |
| Clc1cccc(-n2ncnc2NCc2cccnc2N2CCC2)c1Cl | 7.59 | 8.04 |
| Clc1cccc(-n2cnnc2NCc2cccnc2-c2ccsc2)c1Cl | 7.44 | 7.96 |
| Cc1ccccc1CNc1ncnn1-c1cccc(Cl)c1Cl | 6.70 | 7.68 |
| Cc1nnc(NCc2cccnc2-c2ccsc2)n1-c1cccc(Cl)c1Cl | 7.34 | 7.40 |
| COc1ccccc1CNc1ncnn1-c1cccc(Cl)c1Cl | 6.15 | 7.24 |
| CCOc1ccccc1Nc1ncnn1-c1cccc(Cl)c1Cl | 4.96 | 5.73 |
| CS(=O)(=O)c1ccccc1CNc1ncnn1-c1cccc(Cl)c1Cl | 7.40 | 7.70 |
| CSc1ccccc1CNc1ncnn1-c1cccc(Cl)c1Cl | 6.54 | 7.31 |
| COc1cccc(CNc2ncnn2-c2cccc(Cl)c2Cl)c1 | 5.86 | 6.54 |
| Clc1cccc(-n2cnnc2NCc2cccnc2)c1Cl | 5.95 | 6.45 |
| FC(F)(F)Oc1ccccc1Nc1ncnn1-c1cccc(Cl)c1Cl | 5.26 | 6.21 |
| COc1ccc(CNc2ncnn2-c2cccc(Cl)c2Cl)cc1 | 4.98 | 5.79 |
| Clc1cccc(-n2ncnc2NCc2cccnc2N2CCOCC2)c1Cl | 6.67 | 7.55 |
| Cc1ncccc1CNc1ncnn1-c1cccc(Cl)c1Cl | 6.53 | 7.93 |
